Data from PubChem BioAssay (NCI).
Several values for one entry are separate records, joined by “and”; a condition that tells them apart may be missing. Identical values can stand only once.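 How tested: cells in 96-well plates exposed to compound for 48 hours at five concentrations. GI50: concentration for 50% inhibition of growth. Definition used: TGI = concentration required for complete inhibition of growth.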

Columns and labels:
Experiment in all cases: growth of human tumour cells (NCI), 48 h
EKVX NSCLC = tested on: EKVX NSCLC
HCT-116 colon = tested on: HCT-116 colon
NCI/ADR-RES ovarian = tested on: NCI/ADR-RES ovarian
RXF 393 renal = tested on: RXF 393 renal
SK-OV-3 ovarian = tested on: SK-OV-3 ovarian
SNB-75 CNS = tested on: SNB-75 CNS
T-47D breast = tested on: T-47D breast
U251 CNS = tested on: U251 CNS

SMILES | GI50 (EKVX NSCLC) [µM] | TGI (EKVX NSCLC) [µM] | GI50 (HCT-116 colon) | TGI (HCT-116 colon) | GI50 (NCI/ADR-RES ovarian) | TGI (NCI/ADR-RES ovarian) [µM] | GI50 (RXF 393 renal) | TGI (RXF 393 renal) | GI50 (SK-OV-3 ovarian) | TGI (SK-OV-3 ovarian) [µM] | GI50 (SNB-75 CNS) | TGI (SNB-75 CNS) [µM] | GI50 (T-47D breast) | TGI (T-47D breast) | GI50 (U251 CNS) | TGI (U251 CNS)
Cc1cc2c3ccccc3ccc2[n+]2ccccc12 | 1.22 | > 33.4 | 7.29 µM | 44.4 µM | > 100 µM | > 100 | 14.3 µM | > 84.4 µM | 10.7 µM | 73.3 | 4.66 µM | > 33.7 | 1.86 µM | 6.8 µM | 1.06 µM | 10.1 µM
NC(CSc1nc2ccccn2c1[N+](=O)[O-])C(=O)O (centres undefined) |  | > 100 |  | > 100 µM |  | > 100 |  | > 100 µM |  | > 100 |  | > 100 |  | > 100 µM |  | > 100 µM
Cc1ccc2c(Nc3cccc(Cl)c3F)ncc(NC(=O)c3csc4c(N)ncnc34)c2c1 | > 100 | > 100 | 0.0961 µM | > 100 µM | > 100 µM | > 100 | > 100 µM | > 100 µM | > 100 µM | > 100 | > 100 µM | > 100 | > 100 µM | > 100 µM | > 76.3 µM | > 100 µM
O=c1oc2ccc(Cl)cc2c(=O)n1-c1cc(C(F)(F)F)cc(C(F)(F)F)c1 | 0.288 | 2.01 | 0.277 µM | 1.21 µM | 0.264 µM | 1.37 | 0.228 µM | 0.746 µM | 0.205 µM | 2.38 | 0.201 µM | 0.786 | 0.229 µM | 2.4 µM | 0.254 µM | 11.6 µM
COC(=O)c1ccc2c(c1)C(=O)c1c-2n(CCCN)c(=O)c2cc([N+](=O)[O-])ccc12 | 0.0811 | 0.857 | 0.0337 µM | 0.959 µM | < 0.029 µM | 0.682 | < 0.0345 µM | 0.118 µM | 0.0332 µM | 1.65 | < 0.0348 µM |  | < 0.0173 µM | 1.34 µM | < 0.0127 µM | 0.368 µM
ICCC(c1ccccc1)(c1ccccc1)c1ccccc1 | 6.96 | 23.2 | 2.55 µM | 13.5 µM | 11.1 µM | 29.5 | 8.9 µM | 22.8 µM | 14.7 µM | 27.8 | 1.7 µM | 13 | 14 µM | 34.1 µM | 3.48 µM | 11.3 µM
O=Cc1ccc(Oc2c3ccccc3nc3occc23)cc1 |  |  | 15.3 µM | 28.7 µM | 15.2 µM | 45 | 2.32 µM | 9.17 µM | 21.6 µM | 57 | 19.3 µM | 85.2 | 11.4 µM | 36.3 µM |  | 
O=C1OC(C2=CC(=O)c3ccccc3C2=O)C(Cl)=C1Cl (centres undefined) |  | > 100 |  | > 100 µM |  | > 100 |  | 52.5 µM |  | > 100 |  | > 100 |  | 83.7 µM |  | 86 µM
O=C(Nc1ccccc1)NS(=O)(=O)c1ccc(N2N=C3c4ccccc4CC3C2c2ccccn2)cc1 (centres undefined) | 27.8 | > 100 | 15.3 µM | 29.1 µM | 64.4 µM | > 100 | 45.3 µM | > 100 µM | > 100 µM | > 100 | > 100 µM | > 100 | 93 µM | > 100 µM | 31.9 µM | > 100 µM
Nc1c(C(=O)c2cccc(C#CCN3CCOCC3)c2)cnn1-c1ccc(F)cc1 |  |  | > 22.8 µM | > 25 µM | 8.23 µM | > 25 | > 25 µM | > 25 µM | > 25 µM | > 25 | > 6.15 µM | > 25 | 8.83 µM | > 25 µM | > 21 µM | > 25 µM
O=C1c2cc3c(cc2[C@@H]2[C@H]1c1ccc([N+](=O)[O-])cc1C(=O)N2CCCCl)OCO3 | < 0.01 | > 100 | < 0.01 µM | 15.7 µM | < 0.01 µM | 0.548 | < 0.01 µM | 10.1 µM | < 0.027 µM |  | < 0.0253 µM | > 100 | > 100 µM | > 100 µM | < 0.01 µM | < 0.0128 µM
CC1(C)CC(OCCCC[P+](c2ccccc2)(c2ccccc2)c2ccccc2)CC(C)(C)N1O | 0.256 | 4.37 | 0.238 µM | 3.61 µM | 5.56 µM | 21.5 | 0.518 µM | 2.08 µM | 0.302 µM | 0.787 | 0.331 µM | 3.61 | 0.143 µM | 1.23 µM | 0.247 µM | 1.54 µM
O=C(O)CCCSc1nc2ccccc2s1 |  | > 100 |  | > 100 µM |  | > 100 |  | > 100 µM |  | > 100 |  | > 100 |  | > 100 µM |  | > 100 µM
Nc1ccn(C2CC(O)C(CO)O2)c(=O)n1 (centres undefined) | > 5000 | > 5000 | > 5000 µM | > 5000 µM | > 5000 µM | > 5000 | > 5000 µM | > 5000 µM | > 5000 µM | > 5000 | > 5000 µM | > 5000 | > 5000 µM | > 5000 µM | > 5000 µM | > 5000 µM
CCCCCCCCCCCC[n+]1ccccc1 | 0.936 | 9.17 | 1.92 µM | 10.7 µM | 14.9 µM | 50.7 | 0.738 µM | 3.87 µM | 1.73 µM | 6.35 | 1.16 µM | 4.05 | 0.936 µM | 11.2 µM | 0.997 µM | 2.44 µM
CC1(C)CC(=O)c2c(ccc(C(=O)C[C@H](N)CO)c2N)O1 | > 33.3 | > 33.3 | 1.36 µM and 2.01 µM | 17.5 µM and > 33.3 µM | > 17.5 µM and 7.51 µM | > 33.3 | 4.45 µM and 5.14 µM | 17.5 µM and > 33.3 µM | > 17.5 µM and 12.3 µM | > 33.3 | > 17.5 µM and 3.1 µM | > 33.3 | 5.94 µM and 3.52 µM | 17.5 µM and > 33.3 µM | 1.47 µM and 0.247 µM | 17.5 µM and > 33.3 µM
